The text below walks through data of patent publication US20020045780A1, “Biologically active spermidine analogues, pharmaceutical compositions and methods of treatment” (priority 1997, published 2002).

Structures can show the parent of a compound that is named as a salt. Where two headings read alike, the source gives them in different places.

The test system of series [1] is spermidine/spermine acetyltransferase (SSAT). Particulars: L1210, 2 μM at 48 hours (tetraamine analogues); cited from earlier work.
Series [2] addresses polyamine transport apparatus. Particulars: cited from earlier work; for Ki: inhibition of spermidine transport, L1210, read-out: Ki, corresponding tetraamine (in parentheses).
The test system of series [3] is ornithine decarboxylase (ODC). Conditions: cited from earlier work; for ODC activity, corresponding tetraamine (in parentheses): L1210, 1 μM at 4 hours.
Series [4] in a line: Acute toxicity in mice (single i.p. dose). Type of series: in vivo. Conditions: female, CD-1, mouse, in vivo, ip. On the procedure: (§1) In the current study, the acute toxicity of six analogues and the chronic toxicity of two triamines were measured (Table 7). The value of all polyamine LD50s are shown in both mg/kg and mmol/kg for comparison. […] The animals were scored two hours after administration of the drug. It is clear that the acute LD50s for triamine analogues are approximately twice the acute LD50s for the corresponding tetraamine analogues.
(§2) Acute and chronic toxicities were assessed in 10-12 week old CD-1 female mice from Harlan Sprague-Dawley. For acute toxicities, the polyamine analogues were administered in a single i.p. injection to groups of five or six animals at each dose. The animals were scored two hours after administration of the dose. All survivors were further observed for 10 days to assess late onset of toxicity from the single acute dose. In the chronic toxicity regimen, mice were administered polyamine analogue in three i.p. doses per day (t.i.d.) for six days, for a total of eighteen doses per animal. Appetite, weight and overall appearance were monitored daily. […] At least three test groups of 5-6 animals each, representing three different dose levels, were evaluated for each analogue tested. These dose levels were chosen so that at least two groups presented with lethalities, one with a high fraction of lethalities (>0.50, but <1.00).

Series [5] relates to mice. Kind of series: Acute toxicity in mice (single i.p. dose). It counts as in vivo. The method, then:
as §1, §2

For series [6], the system named is L1210 cells. Conditions: 48 hours, cited from earlier work; for Put, corresponding tetraamine (in parentheses) / Spd, corresponding tetraamine (in parentheses) / Spm, corresponding tetraamine (in parentheses): % of untreated control; for Analogue, corresponding tetraamine (in parentheses): intracellular amount.
Series [7] relates to mice. Conditions: cited from earlier work.
Series [8] relates to L1210 cells. Conditions: cited from earlier work.
The subject of series [9] is S-adenosylmethionine decarboxylase (AdoMetDC). Particulars: cited from earlier work; for AdoMetDC activity, corresponding tetraamine (in parentheses): L1210, 1 μM at 6 hours.
The subject of series [10] is SSAT. Particulars: MALME-3 cells; cited from earlier work.
The subject of series [11] is L1210 cells. The series is described as follows: Metabolic transformation of polyamine analogues by L1210 cells. Type of series: in vitro ADME, murine. On the procedure: The cells were washed twice with cold RPMI-1640, and the pellet was treated with 0.6 N HClO4 (1 ml/10^7 cells). Polyamine contents of the perchloric acid extracts were quantitated by HPLC of the DANSYL derivatives [Bergeron et al, J. Med. Chem., Vol. 37, supra].

[12] abbreviates: mice, single dose i.p., scored two hours after dose, read-out: Acute LD50.
Setting [13] is: L1210, 48 hour exposure, read-out: IC50 48 hour, corresponding tetraamine (in parentheses).
[14] abbreviates: L1210, 96 hour exposure, read-out: IC50 96 hour, corresponding tetraamine (in parentheses).
[15] abbreviates: female, CD-1, mouse, in vivo, 600 mg/kg.

Take `CCNCCCCNCCCCCNCCCCNCC` [DE(4,5,4)]: in [1], the “SSAT activity, corresponding tetraamine (in parentheses)” value (“SSAT activity, corresponding tetraamine” below) is reported as 120 (120) percent of untreated control. Besides, the Ki in series [2] was 6 µM. In series [3], the “ODC activity, corresponding tetraamine (in parentheses)” value (shortened to “ODC activity, corresponding tetraamine”) is listed as 20% of untreated control. Further, the median lethal dose (LD50) at 2 h in series [4] (setting [12]) stood at 638 µmol/kg. Besides, the “Acute LD50” value in series [5] (mice, single dose i.p., scored two hours after dose, hydrochloride salts) is recorded as 285 mg/kg. In series [6] (0.3 μM), the “Put, corresponding tetraamine (in parentheses)” value (“Put, corresponding tetraamine” below) is “(44) %”; the “Spd, corresponding tetraamine (in parentheses)” value (shortened to “Spd, corresponding tetraamine”) is listed as “(61) %”; the “Spm, corresponding tetraamine (in parentheses)” value (shortened to “Spm, corresponding tetraamine”) is recorded as “(70) %”; the “Analogue, corresponding tetraamine (in parentheses)” value (shortened to “Analogue, corresponding tetraamine”) is recorded as “(0.26) nmol/10^6 cells”. Further, the “Chronic LD50 (tetraamines)” value in series [7] (mice, i.p. t.i.d. × 6 days) was 0.104 mmol/kg/day. Further, the “Chronic LD50 (tetraamines)” value in series [7] (mouse, in vivo, ip) was 48 mg/kg-day. For the same compound, the IC50 in series [8] (setting [13]) was 0.3 µM. Further, in series [8] (setting [14]), the IC50 was 0.035 µM.
For the compound `CCNCCCCCNCCCCNCCCCCNCC.Cl.Cl.Cl.Cl` [DE(5,4,5), 3,9,14,20-Tetraazadocosane Tetrahydrochloride], the “SSAT activity, corresponding tetraamine” value in series [1] was 190% of untreated control. In addition, the Ki in [2] is 16 µM. Besides, the “ODC activity, corresponding tetraamine” value in series [3] was 19% of untreated control. In addition, in series [9], the “AdoMetDC activity, corresponding tetraamine (in parentheses)” value (from here on “AdoMetDC activity … (in parentheses)”) is listed as 54% of untreated control. Besides, the LD50 at 2 h in series [4] (mice, single dose i.p., scored two hours after dose, hydrochloride salts, read-out: Acute LD50) stood at 195 mg/kg. In series [4] (setting [12]), the LD50 at 2 h was found to be 424 µmol/kg. In [6] (0.75 μM), the “Put, corresponding tetraamine” value is on record as “(0) %”; the “Spd, corresponding tetraamine” value is given as “(10) %”; the “Spm, corresponding tetraamine” value is “(58) %”; the “Analogue, corresponding tetraamine” value was “(1.48) nmol/10^6 cells”. In addition, the “Chronic LD50 (tetraamines)” value in series [7] (mice, i.p. t.i.d. × 6 days, hydrochloride salts) is given as 36 mg/kg-day. The “Chronic LD50 (tetraamines)” value in series [7] (mice, i.p. t.i.d. × 6 days) is 0.078 mmol/kg/day. For the same compound, the half-inhibitory concentration (IC50) in series [8] (setting [13]) is 0.4 µM. For the same compound, the half-inhibitory concentration (IC50) in [8] (setting [14]) was 0.03 µM.
As for `CCNCCCCNCCCCNCCCCNCC` [DEHSPM, N^1,N^14-diethylhomospermine], the “SSAT activity, corresponding tetraamine” value in [1] is 110% of untreated control. In series [10], the SSAT up-regulation is reported as 30 fold. For the same compound, the Ki in [2] was 1.4 µM. In series [11] (48 hours, 100 μM analogue), the “N-Monodealkylation (result in words)” value is on record as “no N-deethylation”, the “Parent drug as % of total drug in the cell” value (from here on “Parent drug as %”) is listed as 100% and the “Parent drug in L1210 cells” value is 4215 pmols/10^6. Further, the “ODC activity, corresponding tetraamine” value in series [3] was 7% of untreated control. In series [6] (10 μM), the “Put, corresponding tetraamine” value is given as “(0) %”; the “Spd, corresponding tetraamine” value is listed as “(0) %”; the “Spm, corresponding tetraamine” value was “(61) %”; the “Analogue, corresponding tetraamine” value was “(2.94) nmol/10^6 cells”. Also, the half-maximal inhibitory concentration (IC50) in series [8] (setting [13]) was 0.2 µM. Further, the 50% inhibitory concentration (IC50) in series [8] (setting [14]) is 0.07 µM.
With `CCNCCCNCCCNCCCNCC` [DENSPM, N^1,N^11-diethylnorspermine], in [1], the “SSAT activity, corresponding tetraamine” value was 1500% of untreated control. The SSAT up-regulation in [10] is recorded as 1200 fold. The inhibition constant (Ki) in series [2] was 17 µM. For the same compound, in series [2] (polyamine transport system), the “Ki relative to those of DESPM and DEHSPM” value is given as “over 10 times”. Moreover, in [11] (48 hours, 500 μM analogue), the “Parent drug as %” value came to 95.3% and the “Parent drug in L1210 cells” value is 2440 pmols/10^6. Further, the “AdoMetDC activity … (in parentheses)” value in [9] is recorded as 42% of untreated control. In [6] (10 μM), the “Put, corresponding tetraamine” value is recorded as “(30) %”; the “Spd, corresponding tetraamine” value is recorded as “(14) %”; the “Spm, corresponding tetraamine” value is recorded as “(31) %”; the “Analogue, corresponding tetraamine” value is “(1.59) nmol/10^6 cells”. For the same compound, in [6] (100 μM), the “Analogue, corresponding tetraamine” value was “(2.44) nmol/10^6 cells”. Further, in series [8] (setting [13]), the IC50 is > 100 µM. For the same compound, in series [8] (setting [14]), the IC50 is 2 µM.
`CCNCCCNCCCCNCCCNCC` [DESPM, N^1,N^12-diethylspermine]: the “SSAT activity, corresponding tetraamine” value in series [1] is given as 460% of untreated control. For the same compound, in [10], the SSAT up-regulation was 250 fold. The Ki in series [2] was 1.6 µM. Moreover, the “Time at which reduction in ODC activity plateaued” value in [3] (previous studies) was 4 h. The “AdoMetDC activity … (in parentheses)” value in [9] is listed as 28% of untreated control. For the same compound, the “Time at which reduction in AdoMetDC activity plateaued” value in [9] (previous studies) was 6 h. Besides, the LD50 at 2 h in series [4] was found to be 842 µmol/kg. In [5] (setting [15]), the “Animals died within seven days” value is given as 5/5 and the “Death within the initial 2 hours” value is reported as “no death”. The 50% inhibitory concentration (IC50) in series [8] (setting [13]) was 30 µM. In addition, in series [8] (setting [14]), the 50% inhibitory concentration (IC50) is 0.18 µM.
For `CNCCCCNCCCCNCCCCNC` [DMHSPM], in series [1], the “SSAT activity, corresponding tetraamine” value is reported as 140% of untreated control. Further, the Ki in series [2] was 0.97 µM. Moreover, the “N-dealkylation (result in words)” value in series [11] (L1210 cells, data not shown, concentration not given) was “no evidence of N-dealkylation”. Also, the “ODC activity, corresponding tetraamine” value in series [3] is listed as 4% of untreated control. Further, in series [9], the “AdoMetDC activity … (in parentheses)” value is 45% of untreated control. For the same compound, in [6] (100 μM), the “Put, corresponding tetraamine” value is “(0) %”; the “Spd, corresponding tetraamine” value is on record as “(0) %”; the “Spm, corresponding tetraamine” value is on record as “(30) %”; the “Analogue, corresponding tetraamine” value is “(1.49) nmol/10^6 cells”. Moreover, in [6] (500 μM), the “Put, corresponding tetraamine” value is given as “(0) %”; the “Spd, corresponding tetraamine” value is reported as “(0) %”; the “Spm, corresponding tetraamine” value is recorded as “(27) %”; the “Analogue, corresponding tetraamine” value is “(1.03) nmol/10^6 cells”. The 50% inhibitory concentration (IC50) in series [8] (setting [13]) is > 100 µM. Moreover, the IC50 in series [8] (setting [14]) is 0.32 µM.
For the compound `CCCNCCCNCCCNCCCNCCC` [DPNSPM, N^1,N^11-Dipropylnorspermine Tetrahydrochloride], the “SSAT activity, corresponding tetraamine” value in [1] is 460% of untreated control. Also, the inhibition constant Ki in [2] is 11 µM. Also, in series [11] (48 hours, 100 μM analogue), the “Parent drug as %” value is on record as 78.2% and the “Parent drug in L1210 cells” value was found to be 893 pmols/10^6. Further, in series [3], the “ODC activity, corresponding tetraamine” value is listed as 79% of untreated control. In addition, the “AdoMetDC activity … (in parentheses)” value in [9] is 70% of untreated control. Also, in series [6] (100 μM), the “Put, corresponding tetraamine” value is “(61) %”; the “Spd, corresponding tetraamine” value is “(35) %”; the “Spm, corresponding tetraamine” value is on record as “(77) %”; the “Analogue, corresponding tetraamine” value is “(0.89) nmol/10^6 cells”. In addition, in series [6] (500 μM), the “Put, corresponding tetraamine” value was “(0) %”; the “Spd, corresponding tetraamine” value is listed as “(19) %”; the “Spm, corresponding tetraamine” value is given as “(56) %”; the “Analogue, corresponding tetraamine” value is “(1.28) nmol/10^6 cells”. For the same compound, the 50% inhibitory concentration (IC50) in series [8] (setting [13]) is > 100 µM. Moreover, the concentration for half-maximal inhibition (IC50) in series [8] (setting [14]) is 18 µM.
Take `CCCNCCCNCCCCNCCCNCCC` [DPSPM]: in series [1], the “SSAT activity, corresponding tetraamine” value is recorded as 500% of untreated control. Besides, in [2], the Ki was 2.3 µM. In [11] (48 hours, 15 μM analogue), the “Parent drug as %” value is reported as 79.0% and the “Parent drug in L1210 cells” value was determined as 1568 pmols/10^6. In addition, the “ODC activity, corresponding tetraamine” value in series [3] is 52% of untreated control. The “AdoMetDC activity … (in parentheses)” value in series [9] is given as 72% of untreated control. Besides, in series [6] (15 μM), the “Put, corresponding tetraamine” value is recorded as “(0) %” and the “Analogue, corresponding tetraamine” value is given as “(1.09) nmol/10^6 cells”. Moreover, the “Analogue, corresponding tetraamine” value in series [6] (3 μM) is reported as “(1.12) nmol/10^6 cells”. The concentration for half-maximal inhibition (IC50) in [8] (setting [13]) is 3 µM. For the same compound, the half-inhibitory concentration (IC50) in series [8] (setting [14]) is 0.2 µM.
